Non-standard residues stand in square brackets, D forms with d. Residues, ends and D or L forms follow the SMILES beside them. ξ: configuration not given here. *: point of attachment. ξF = NC(Cc1ccccc1)C(=O)O; Cbz = O=C(OCc1ccccc1)*; CF3 = FC(F)(F)*
What was measured:
SARS-CoV 3CLpro [1] = type: biochemical; details: activity class by pIC50 threshold 6
SARS-CoV-2 3CLpro = SARS-CoV-2 3CLpro (Severe acute respiratory syndrome coronavirus 2, UniProt P0DTD1); details: SARS-CoV pIC50 multiplied by similarity index (SI), training set compounds
SARS-CoV 3CLpro [2] = details: SARS-CoV 3CLpro inhibitors (training set), ref: per compound, cited from earlier work; for pIC50: from literature IC50; for IC50: literature values

Compound	Inact.(<6)/Act.(>=6) (SARS-CoV 3CLpro [1])	SI*pIC50 (SARS-CoV-2 3CLpro)	pIC50 (SARS-CoV 3CLpro [2])	IC50 (SARS-CoV 3CLpro [2])
Clc1ccc(C2C(n3ccnc3)C(c3ccc(Br)cc3)=NN2c2ccc(Cl)c(Cl)c2)cc1 (centres unmarked) [CMP112]	Inact. (Inact.(<6))	5.754	5.602	2.5 µM
O=C1C(=O)N(Cc2ccc(C(=O)N3CCCCC3)s2)c2ccc(I)cc21 [CMP100]	Inact. (Inact.(<6))	4.909	4.757	17.5 µM
O=C(Oc1cncc(Cl)c1)c1cc2ccccc2s1 [CMP140]	Act. (Act.(>=6))	7.152	7	0.1 µM
C=CCSc1ccccc1NC(=O)/C=C/c1ccccc1 [CMP106]	Inact. (Inact.(<6))	4.857	4.706	19.7 µM
Cc1c(O)c(O)cc2c1CC=C1[C@@]2(C)CC[C@@]2(C)[C@@H]3C[C@](C)(C(=O)O)CC[C@]3(C)CC[C@]12C [CMP161]	Inact. (Inact.(<6))	4.816	4.664	21.7 µM
CC(C)c1cc2c(cc1O)[C@@]1(C)CCCC(C)(C)[C@@H]1CC2 [CMP132]	Inact. (Inact.(<6))	4.457	4.305	49.6 µM
O=C1C(=O)N(Cc2ccccc2)c2ccc(S(=O)(=O)N3CCOCC3)cc21 [CMP148]	Inact. (Inact.(<6))	5.01	4.858	13.9 µM
O=C(Oc1cncc(Cl)c1)c1cc2ccccc2oc1=O [CMP162]	Act. (Act.(>=6))	7.11	6.959	0.11 µM
O=C(CSc1ncnc2c1sc1nc(N3CCOCC3)c3c(c12)CCCC3)NCc1ccco1 [CMP134]	Inact. (Inact.(<6))	4.194	4.0423	90.7 µM
CC(=O)c1ccccc1S(=O)(=O)c1ccccc1C(=O)O [CMP147]	Inact. (Inact.(<6))	4.948	4.796	16 µM
CCOC(=O)/C=C/[C@H](C[C@@H]1CCNC1=O)NC(=O)[C@H](Cc1ccccc1)NC(=O)[C@@H](NC(=O)[C@H](CO)NC(=O)OC(C)(C)C)C(C)C [CMP180]	Inact. (Inact.(<6))	4.976	4.824	15 µM
CC(C)C[C@H](NC(=O)[C@@H](NC(=O)[C@H](C)NC(=O)OCc1ccccc1)C(C)C)C(=O)NC(Cc1ccccc1)C(=O)C(F)(F)F (some centres unmarked) [CMP174] (Cbz-AVL[ξF]-CF3)	Inact. (Inact.(<6))	5.152	5	10 µM
CC1CCN(S(=O)(=O)c2ccc3c(c2)C(=O)C(=O)N3)CC1 [CMP146]	Inact. (Inact.(<6))	6.08	5.928	1.18 µM
C=C(N[C@@H](CC(C)C)C(=O)N[C@@H](CC1CCNC1=O)C(=O)Cn1[nH]c(=O)c2c([N+](=O)[O-])cccc2c1=O)[C@@H](NC(=O)[C@H](C)NC(=O)O)[C@@H](C)OCc1ccccc1 (some centres unmarked) [CMP101]	Act. (Act.(>=6))	6.374	6.222	0.6 µM
CCOC(=O)C(C#N)=CNc1ccc(S(=O)(=O)c2ccc(NC=C(C#N)C(=O)OCC)cc2)cc1 [CMP122]	Inact. (Inact.(<6))	4.948	4.796	16 µM
CC1=C(O)C(=O)C=C2C1=CC=C1[C@@]2(C)CC[C@@]2(C)[C@@H]3C[C@@H](C)C(=O)C[C@]3(C)CC[C@]12C [CMP126]	Inact. (Inact.(<6))	5.156	5.004	9.91 µM
O=c1cc(-c2ccc(O)c(O)c2)oc2cc(O)cc(O)c12 [CMP153]	Inact. (Inact.(<6))	4.851	4.699	20 µM
CCC(C)c1ccc(N(C(=O)c2ccco2)C(C(=O)NC2CCCC2)c2cccnc2)cc1 (centres unmarked) [CMP144]	Inact. (Inact.(<6))	5.809	5.658	2.2 µM

Compound	Inact.(<6)/Act.(>=6) (SARS-CoV 3CLpro [1])	SI*pIC50 (SARS-CoV-2 3CLpro)	pIC50 (SARS-CoV 3CLpro [2])	IC50 (SARS-CoV 3CLpro [2])
CCCn1c(NCc2ccc(N3N=C(c4ccccc4)CC3c3ccccc3)cc2)nc2ccccc21 (centres unmarked) [CMP115]	Inact. (Inact.(<6))	5.249	5.097	8 µM
C=C[C@@]1(C)CC[C@H]2C(=CC[C@@H]3[C@]2(C)CCC[C@@]3(C)C(=O)O)C1 [CMP133]	Inact. (Inact.(<6))	3.699	3.547	284 µM
O=C(O)c1ccc(S(=O)(=O)c2cc(Br)c(O)c(Br)c2)cc1 [CMP138]	Inact. (Inact.(<6))	4.948	4.796	16 µM
O=C(Oc1cncc(Cl)c1)c1cscn1 [CMP166]	Act. (Act.(>=6))	6.72	6.569	0.27 µM
O=C(/C=C/c1ccccc1)Nc1ccccc1SC(=O)/C=C/c1ccccc1 [CMP108]	Inact. (Inact.(<6))	6.127	5.975	1.06 µM
O=c1cc(-c2ccc(O)c(-c3c(O)cc(O)c4c(=O)cc(-c5ccc(O)cc5)oc34)c2)oc2cc(O)cc(O)c12 [CMP154]	Inact. (Inact.(<6))	5.233	5.081	8.3 µM
O=C(Cc1nccs1)c1nccs1 [CMP178]	Inact. (Inact.(<6))	4.55	4.398	40 µM
CCn1c(NCc2ccc(N3N=C(c4ccccc4)CC3c3ccccc3)cc2)nc2ccccc21 (centres unmarked) [CMP114]	Inact. (Inact.(<6))	5.228	5.076	8.4 µM
CC(C)c1ccc(N(C(=O)c2ccco2)C(C(=O)NC(C)(C)C)c2cccnc2)cc1 (centres unmarked) [CMP182]	Inact. (Inact.(<6))	4.7028	4.551	28.1 µM
CC(C)C[C@H](NC(=O)[C@@H](NC(=O)OCc1ccccc1)C(C)C)C(=O)N[C@@H](C[C@@H]1CCNC1=O)C(=O)c1nccs1 [CMP183]	Inact. (Inact.(<6))	5.174	5.022	9.5 µM
O=C(Oc1cncc(Cl)c1)c1cc2ccccc2[nH]1 [CMP170]	Act. (Act.(>=6))	7.307	7.1549	0.07 µM
O=C(Cc1cncc(Cl)c1)c1cccs1 [CMP181]	Act. (Act.(>=6))	6.453	6.301	0.5 µM
O=C1Nc2ccc(S(=O)(=O)N3CCCCC3)cc2C1=O [CMP145]	Inact. (Inact.(<6))	5.503	5.352	4.45 µM
NC(=O)c1ccc2c(c1)C(=O)C(=O)N2c1cccc2ccccc12 [CMP118]	Act. (Act.(>=6))	6.584	6.4318	0.37 µM
COc1cc(C[S+]([O-])c2nc3cccnc3s2)oc(=O)c1 (centres unmarked) [CMP109]	Inact. (Inact.(<6))	5.294	5.143	7.2 µM
O=c1[nH]c2cc(Cl)cc(Cl)c2c(O)c1Sc1nnnn1-c1ccc(O)cc1 [CMP110]	Inact. (Inact.(<6))	5.127	4.975	10.6 µM
COc1ccccc1/N=C/c1nc(-c2ccccc2)oc1OC(C)=O [CMP113]	Inact. (Inact.(<6))	5.6333	5.481	3.3 µM

Reference: article PMC8611036, “An integrated method for optimized identification of effective natural inhibitors against SARS-CoV-2 3CLpro” (Scientific Reports, 2021)
